Experiments:
Experiment in all cases: ScanEDGE kinase panel (DiscoverX)
Format in all cases: binding
Settings in all cases: read-out: % of control activity at 71 nM
PIK3CA = target: T1, PIK3CA (Homo sapiens, UniProt P42336)
T1 construct: T7 phage fusion (most kinases) or DNA tag for qPCR (kinases made in HEK-293); purchased DiscoverX; host or cells: E. coli BL21-derived host (T7 phage) or HEK-293
Protocol: (§1) ScanEDGE kinase assays paneling specificity across a panel of 96 representative kinases were performed by DiscoverX (Fremont, CA). For most assays, kinase-tagged T7 phage strains were grown in parallel in 24-well blocks in an E. coli host derived from the BL21 strain. Bacteria were grown to log phase and infected with T7 phage from frozen stock (MOI=0.4) and incubated with shaking at 32° C. until lysis (90-150 minutes). The lysates were centrifuged (6000×g) and filtered (0.2 μm) to remove cell debris. The remaining kinases were produced in HEK-293 cells and subsequently tagged with DNA for qPCR detection. […] The liganded beads were blocked with excess biotin and washing with blocking buffer (SeaBlock (Pierce), 1% BSA, 0.05% Tween 20, 1 mM DTT) to remove unbound ligand and to reduce non-specific phage binding. […] Test compounds were prepared as 40× stocks in 100% DMSO and directly diluted into the assay. All reactions were performed in polypropylene 384 well plates in a final volume of 40 μl. […] The kinase concentration in the eluates was measured by qPCR.

AMPK-alpha1 = target: T2, AMPK-alpha1 (Homo sapiens, UniProt Q13131)
T2 construct: T7 phage fusion (most kinases) or DNA tag for qPCR (HEK-293-made kinases); purchased DiscoverX (Fremont, CA); host or cells: E. coli BL21-derived host (T7 phage) or HEK-293
Protocol: as §1

RIPK2 = target: T3, RIPK2 (Homo sapiens, UniProt O43353)
T3 construct: T7 phage fusion (most kinases) or DNA tag after HEK-293 expression; purchased DiscoverX (Fremont, CA), ScanEDGE; host or cells: T7 phage in E. coli BL21-derived host, or HEK-293
T3 sequence (O43353 whole entry, the tested form may be a part): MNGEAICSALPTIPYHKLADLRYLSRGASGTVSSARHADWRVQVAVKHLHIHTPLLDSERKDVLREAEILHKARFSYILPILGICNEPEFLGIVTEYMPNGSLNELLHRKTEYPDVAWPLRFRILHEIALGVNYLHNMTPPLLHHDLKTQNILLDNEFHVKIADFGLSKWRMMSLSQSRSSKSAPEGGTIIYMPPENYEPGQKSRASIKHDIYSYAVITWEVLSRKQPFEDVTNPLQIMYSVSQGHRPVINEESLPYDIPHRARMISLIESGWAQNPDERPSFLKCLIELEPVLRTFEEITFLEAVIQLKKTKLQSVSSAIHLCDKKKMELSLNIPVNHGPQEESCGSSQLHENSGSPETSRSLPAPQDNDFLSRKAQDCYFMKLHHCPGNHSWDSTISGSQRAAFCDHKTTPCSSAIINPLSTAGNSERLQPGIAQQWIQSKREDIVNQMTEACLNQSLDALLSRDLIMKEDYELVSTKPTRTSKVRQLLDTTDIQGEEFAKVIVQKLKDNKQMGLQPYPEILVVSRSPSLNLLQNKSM
Protocol: as §1

FAK = target: T4, FAK (Homo sapiens, UniProt Q05397)
T4 construct: T7 phage fusion (most kinases) or DNA tag for qPCR (HEK-293-made kinases); purchased DiscoverX; host or cells: E. coli BL21-derived host (T7 phage) or HEK-293
Protocol: as §1

IGF1R = target: T5, IGF1R (Homo sapiens, UniProt P08069)
T5 construct: T7 phage fusion (most kinases) or DNA tag for qPCR (HEK-293-made kinases); purchased DiscoverX; host or cells: E. coli BL21-derived host (T7 phage) or HEK-293
Protocol: as §1

RAF1 = target: T6, RAF1 (Homo sapiens, UniProt P04049)
T6 construct: T7 phage fusion (most kinases) or DNA tag after HEK-293 expression; purchased DiscoverX (Fremont, CA), ScanEDGE; host or cells: T7 phage in E. coli BL21-derived host, or HEK-293
Protocol: as §1

BTK = target: T7, BTK (Homo sapiens, UniProt Q06187)
T7 construct: T7 phage fusion (most kinases) or DNA tag for qPCR (HEK-293-made kinases); purchased DiscoverX (Fremont, CA); host or cells: E. coli BL21-derived host (T7 phage) or HEK-293
Protocol: as §1

HIPK2 = target: T8, HIPK2 (Homo sapiens, UniProt Q9H2X6)
T8 construct: T7 phage fusion (most kinases) or DNA tag for qPCR (HEK-293-made kinases); purchased DiscoverX; host or cells: E. coli BL21-derived host (T7 phage) or HEK-293
Protocol: as §1

MLK1 = target: T9, MLK1 (Homo sapiens, UniProt P80192)
T9 construct: T7 phage fusion (most kinases) or DNA tag for qPCR (kinases made in HEK-293); purchased DiscoverX; host or cells: E. coli BL21-derived host (T7 phage) or HEK-293
Protocol: as §1

EPHA2 = target: T10, EPHA2 (Homo sapiens, UniProt P29317)
T10 construct: T7 phage fusion (most kinases) or DNA tag for qPCR (HEK-293-made kinases); purchased DiscoverX; host or cells: E. coli BL21-derived host (T7 phage) or HEK-293
T10 sequence (P29317 24-976): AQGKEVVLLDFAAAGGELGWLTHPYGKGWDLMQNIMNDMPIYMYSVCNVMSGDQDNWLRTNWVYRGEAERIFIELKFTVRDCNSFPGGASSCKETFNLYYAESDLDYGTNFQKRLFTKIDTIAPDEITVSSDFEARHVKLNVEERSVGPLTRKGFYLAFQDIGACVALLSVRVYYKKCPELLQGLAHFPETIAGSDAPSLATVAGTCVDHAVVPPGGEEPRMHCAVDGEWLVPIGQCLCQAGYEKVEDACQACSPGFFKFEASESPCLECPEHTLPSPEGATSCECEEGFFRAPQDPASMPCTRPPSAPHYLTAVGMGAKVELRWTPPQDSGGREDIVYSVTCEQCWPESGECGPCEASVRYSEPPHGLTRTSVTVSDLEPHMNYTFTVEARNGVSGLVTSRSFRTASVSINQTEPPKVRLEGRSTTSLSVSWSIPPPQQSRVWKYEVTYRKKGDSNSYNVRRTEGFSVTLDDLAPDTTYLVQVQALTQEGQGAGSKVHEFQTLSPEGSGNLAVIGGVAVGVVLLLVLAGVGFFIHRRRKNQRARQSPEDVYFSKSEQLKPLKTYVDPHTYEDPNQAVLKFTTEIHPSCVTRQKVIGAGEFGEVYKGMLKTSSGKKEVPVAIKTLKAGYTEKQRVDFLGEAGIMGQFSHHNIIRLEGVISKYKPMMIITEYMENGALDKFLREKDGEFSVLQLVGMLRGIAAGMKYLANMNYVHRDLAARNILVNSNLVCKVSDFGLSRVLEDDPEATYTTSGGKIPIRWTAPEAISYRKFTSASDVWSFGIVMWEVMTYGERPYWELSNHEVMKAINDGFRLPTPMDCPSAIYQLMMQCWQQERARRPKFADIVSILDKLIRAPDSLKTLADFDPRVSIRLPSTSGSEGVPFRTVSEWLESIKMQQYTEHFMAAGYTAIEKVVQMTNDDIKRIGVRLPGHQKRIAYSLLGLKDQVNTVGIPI
Protocol: as §1

CSNK1D = target: T11, CSNK1D (Homo sapiens, UniProt P48730)
T11 construct: T7 phage fusion (most kinases) or DNA tag for qPCR (HEK-293-made kinases); purchased DiscoverX (Fremont, CA); host or cells: E. coli BL21-derived host (T7 phage) or HEK-293
Protocol: as §1

CSNK1G2 = target: T12, CSNK1G2 (Homo sapiens, UniProt P78368)
T12 construct: T7 phage fusion (most kinases) or DNA tag for qPCR (HEK-293-made kinases); purchased DiscoverX (Fremont, CA); host or cells: E. coli BL21-derived host (T7 phage) or HEK-293
Protocol: as §1

IKK-alpha = target: T13, IKK-alpha (Homo sapiens, UniProt O15111)
T13 construct: T7 phage fusion (most kinases) or DNA tag for qPCR (HEK-293-made kinases); purchased DiscoverX; host or cells: E. coli BL21-derived host (T7 phage) or HEK-293
Protocol: as §1

KIT = target: T14, KIT (Homo sapiens, UniProt P10721)
T14 construct: T7 phage fusion (most kinases) or DNA tag for qPCR (HEK-293-made kinases); purchased DiscoverX; host or cells: E. coli BL21-derived host (T7 phage) or HEK-293
T14 sequence (P10721 26-976): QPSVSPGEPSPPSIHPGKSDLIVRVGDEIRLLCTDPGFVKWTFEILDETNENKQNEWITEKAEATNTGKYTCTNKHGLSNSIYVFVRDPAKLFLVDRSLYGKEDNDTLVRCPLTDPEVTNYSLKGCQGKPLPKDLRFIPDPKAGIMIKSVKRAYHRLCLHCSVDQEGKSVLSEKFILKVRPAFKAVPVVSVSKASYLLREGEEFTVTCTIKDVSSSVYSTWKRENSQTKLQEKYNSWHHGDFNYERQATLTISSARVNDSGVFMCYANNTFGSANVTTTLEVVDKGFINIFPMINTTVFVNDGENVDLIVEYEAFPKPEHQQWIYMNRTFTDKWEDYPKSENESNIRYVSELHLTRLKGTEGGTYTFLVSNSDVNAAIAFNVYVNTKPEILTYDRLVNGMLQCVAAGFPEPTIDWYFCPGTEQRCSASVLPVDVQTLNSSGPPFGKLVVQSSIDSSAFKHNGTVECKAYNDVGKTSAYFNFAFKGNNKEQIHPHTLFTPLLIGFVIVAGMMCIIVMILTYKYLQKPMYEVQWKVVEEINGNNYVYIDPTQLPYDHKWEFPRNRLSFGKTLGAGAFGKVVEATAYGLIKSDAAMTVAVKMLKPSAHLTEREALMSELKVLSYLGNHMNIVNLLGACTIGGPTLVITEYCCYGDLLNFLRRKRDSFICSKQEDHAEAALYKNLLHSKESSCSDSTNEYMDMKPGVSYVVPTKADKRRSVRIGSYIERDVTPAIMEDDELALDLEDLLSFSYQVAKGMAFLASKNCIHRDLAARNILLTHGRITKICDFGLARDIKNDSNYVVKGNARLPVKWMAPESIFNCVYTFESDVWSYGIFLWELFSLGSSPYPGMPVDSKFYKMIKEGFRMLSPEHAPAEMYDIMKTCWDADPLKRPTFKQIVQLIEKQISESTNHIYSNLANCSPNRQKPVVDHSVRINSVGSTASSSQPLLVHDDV
Protocol: as §1

CHEK1 = target: T15, CHEK1 (Homo sapiens, UniProt O14757)
T15 construct: T7 phage fusion (most kinases) or DNA tag for qPCR (HEK-293-made kinases); purchased DiscoverX (Fremont, CA); host or cells: E. coli BL21-derived host (T7 phage) or HEK-293
Protocol: as §1

TYK2 = target: T16, TYK2 (Homo sapiens, UniProt P29597)
T16 construct: T7 phage fusion (most kinases) or DNA tag after HEK-293 expression; purchased DiscoverX (Fremont, CA), ScanEDGE; host or cells: T7 phage in E. coli BL21-derived host, or HEK-293
T16 sequence (P29597 888-1187 limits assumed): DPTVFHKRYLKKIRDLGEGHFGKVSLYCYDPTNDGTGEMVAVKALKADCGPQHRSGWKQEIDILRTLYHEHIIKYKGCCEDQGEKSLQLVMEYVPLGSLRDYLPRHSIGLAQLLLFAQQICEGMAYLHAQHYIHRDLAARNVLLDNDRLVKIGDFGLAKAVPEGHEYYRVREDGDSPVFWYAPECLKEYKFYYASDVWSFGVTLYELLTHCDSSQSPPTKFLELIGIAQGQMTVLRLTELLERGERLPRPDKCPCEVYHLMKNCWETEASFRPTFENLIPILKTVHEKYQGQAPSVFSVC
Protocol: as §1

PIM2 = target: T17, PIM2 (Homo sapiens, UniProt Q9P1W9)
T17 construct: T7 phage fusion (most kinases) or DNA tag for qPCR (kinases made in HEK-293); purchased DiscoverX; host or cells: E. coli BL21-derived host (T7 phage) or HEK-293
T17 sequence (Q9P1W9 whole entry, the tested form may be a part): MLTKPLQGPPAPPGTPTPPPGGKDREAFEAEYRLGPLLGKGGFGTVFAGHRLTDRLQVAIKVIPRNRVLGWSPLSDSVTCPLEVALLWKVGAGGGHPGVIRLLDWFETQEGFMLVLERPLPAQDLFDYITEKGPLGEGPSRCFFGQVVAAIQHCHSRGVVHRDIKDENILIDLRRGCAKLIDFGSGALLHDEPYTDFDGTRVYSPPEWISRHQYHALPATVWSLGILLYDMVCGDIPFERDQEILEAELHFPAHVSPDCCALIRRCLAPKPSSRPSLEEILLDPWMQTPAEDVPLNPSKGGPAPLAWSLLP
Protocol: as §1

FGFR3 = target: T18, FGFR3 (Homo sapiens, UniProt P22607)
T18 construct: T7 phage fusion (most kinases) or DNA tag for qPCR (HEK-293-made kinases); purchased DiscoverX; host or cells: E. coli BL21-derived host (T7 phage) or HEK-293
Protocol: as §1

PIK3C2B = target: T19, PIK3C2B (Homo sapiens, UniProt O00750)
T19 construct: T7 phage fusion (most kinases) or DNA tag for qPCR (kinases made in HEK-293); purchased DiscoverX; host or cells: E. coli BL21-derived host (T7 phage) or HEK-293
T19 sequence (O00750 whole entry, the tested form may be a part): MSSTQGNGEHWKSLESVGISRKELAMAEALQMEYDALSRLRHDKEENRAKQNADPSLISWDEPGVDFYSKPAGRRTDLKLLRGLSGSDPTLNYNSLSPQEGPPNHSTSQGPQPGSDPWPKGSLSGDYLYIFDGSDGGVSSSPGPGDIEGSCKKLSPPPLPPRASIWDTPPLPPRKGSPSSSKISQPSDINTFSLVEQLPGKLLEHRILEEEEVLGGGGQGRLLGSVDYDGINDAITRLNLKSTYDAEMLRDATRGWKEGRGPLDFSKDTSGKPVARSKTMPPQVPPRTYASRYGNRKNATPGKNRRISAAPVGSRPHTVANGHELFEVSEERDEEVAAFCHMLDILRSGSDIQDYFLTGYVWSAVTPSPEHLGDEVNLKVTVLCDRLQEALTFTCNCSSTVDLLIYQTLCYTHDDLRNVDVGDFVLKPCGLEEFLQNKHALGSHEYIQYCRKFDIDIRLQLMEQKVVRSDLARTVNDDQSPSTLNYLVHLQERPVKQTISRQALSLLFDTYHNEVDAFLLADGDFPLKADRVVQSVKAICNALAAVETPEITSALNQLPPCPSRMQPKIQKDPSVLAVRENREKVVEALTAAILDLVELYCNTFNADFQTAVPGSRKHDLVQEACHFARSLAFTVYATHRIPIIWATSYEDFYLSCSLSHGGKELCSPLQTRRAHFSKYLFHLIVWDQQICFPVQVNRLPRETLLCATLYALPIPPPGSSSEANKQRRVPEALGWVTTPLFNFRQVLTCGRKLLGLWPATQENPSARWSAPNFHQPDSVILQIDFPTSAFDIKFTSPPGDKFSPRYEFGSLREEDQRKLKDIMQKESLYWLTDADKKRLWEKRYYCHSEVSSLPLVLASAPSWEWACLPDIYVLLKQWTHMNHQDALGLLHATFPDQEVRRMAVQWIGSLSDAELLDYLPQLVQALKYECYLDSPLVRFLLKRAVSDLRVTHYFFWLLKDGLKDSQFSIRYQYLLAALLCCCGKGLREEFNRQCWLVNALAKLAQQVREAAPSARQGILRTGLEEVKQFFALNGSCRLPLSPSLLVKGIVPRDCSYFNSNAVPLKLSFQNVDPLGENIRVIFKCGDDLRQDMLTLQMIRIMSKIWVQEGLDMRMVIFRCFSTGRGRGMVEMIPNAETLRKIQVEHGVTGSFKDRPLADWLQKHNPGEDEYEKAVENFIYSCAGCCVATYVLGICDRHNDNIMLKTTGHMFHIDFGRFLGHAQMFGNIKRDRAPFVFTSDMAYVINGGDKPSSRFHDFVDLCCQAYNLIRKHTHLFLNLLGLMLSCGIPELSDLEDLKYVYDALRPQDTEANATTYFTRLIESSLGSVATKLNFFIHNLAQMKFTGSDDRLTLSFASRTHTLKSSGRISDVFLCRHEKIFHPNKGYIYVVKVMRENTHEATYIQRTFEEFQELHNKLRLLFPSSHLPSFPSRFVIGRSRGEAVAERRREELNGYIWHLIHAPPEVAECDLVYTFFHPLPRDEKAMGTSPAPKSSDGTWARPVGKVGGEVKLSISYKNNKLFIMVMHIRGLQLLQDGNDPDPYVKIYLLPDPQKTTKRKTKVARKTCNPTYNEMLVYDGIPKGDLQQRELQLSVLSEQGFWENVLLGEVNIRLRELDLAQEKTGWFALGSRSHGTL
Protocol: as §1

PIM3 = target: T20, PIM3 (Homo sapiens, UniProt Q86V86)
T20 construct: T7 phage fusion (most kinases) or DNA tag for qPCR (kinases made in HEK-293); purchased DiscoverX; host or cells: E. coli BL21-derived host (T7 phage) or HEK-293
Protocol: as §1

TGFBR1 = target: T21, TGFBR1 (Homo sapiens, UniProt P36897)
T21 construct: T7 phage fusion (most kinases) or DNA tag after HEK-293 expression; purchased DiscoverX (Fremont, CA), ScanEDGE; host or cells: T7 phage in E. coli BL21-derived host, or HEK-293
Protocol: as §1

BRAF = target: T22, BRAF (Homo sapiens, UniProt P15056)
T22 construct: T7 phage fusion (most kinases) or DNA tag for qPCR (HEK-293-made kinases); purchased DiscoverX (Fremont, CA); host or cells: E. coli BL21-derived host (T7 phage) or HEK-293
Protocol: as §1

PKAC-alpha = target: T23, PKAC-alpha (Homo sapiens, UniProt P17612)
T23 construct: T7 phage fusion (most kinases) or DNA tag for qPCR (kinases made in HEK-293); purchased DiscoverX; host or cells: E. coli BL21-derived host (T7 phage) or HEK-293
Protocol: as §1

HCK = target: T24, HCK (Homo sapiens, UniProt P08631)
T24 construct: T7 phage fusion (most kinases) or DNA tag for qPCR (HEK-293-made kinases); purchased DiscoverX; host or cells: E. coli BL21-derived host (T7 phage) or HEK-293
Protocol: as §1

MET = target: T25, MET (Homo sapiens, UniProt P08581)
T25 construct: T7 phage fusion (most kinases) or DNA tag for qPCR (kinases made in HEK-293); purchased DiscoverX; host or cells: E. coli BL21-derived host (T7 phage) or HEK-293
Protocol: as §1

MARK3 = target: T26, MARK3 (Homo sapiens, UniProt P27448)
T26 construct: T7 phage fusion (most kinases) or DNA tag for qPCR (HEK-293-made kinases); purchased DiscoverX; host or cells: E. coli BL21-derived host (T7 phage) or HEK-293
Protocol: as §1

MELK = target: T27, MELK (Homo sapiens, UniProt Q14680)
T27 construct: T7 phage fusion (most kinases) or DNA tag for qPCR (kinases made in HEK-293); purchased DiscoverX; host or cells: E. coli BL21-derived host (T7 phage) or HEK-293
Protocol: as §1

CDK3 = target: T28, CDK3 (Homo sapiens, UniProt Q00526)
T28 construct: T7 phage fusion (most kinases) or DNA tag for qPCR (HEK-293-made kinases); purchased DiscoverX (Fremont, CA); host or cells: E. coli BL21-derived host (T7 phage) or HEK-293
T28 sequence (Q00526 whole entry, the tested form may be a part): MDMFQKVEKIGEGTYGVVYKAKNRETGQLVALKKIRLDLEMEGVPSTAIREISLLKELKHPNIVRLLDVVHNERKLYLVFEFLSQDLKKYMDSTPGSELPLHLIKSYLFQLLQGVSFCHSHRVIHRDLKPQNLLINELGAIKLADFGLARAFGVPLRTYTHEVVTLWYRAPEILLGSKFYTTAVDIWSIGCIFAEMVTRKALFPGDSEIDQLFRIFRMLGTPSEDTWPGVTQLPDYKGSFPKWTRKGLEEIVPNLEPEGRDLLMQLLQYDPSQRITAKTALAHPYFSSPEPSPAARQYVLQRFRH
Protocol: as §1

PIK3CG = target: T29, PIK3CG (Homo sapiens, UniProt P48736)
T29 construct: T7 phage fusion (most kinases) or DNA tag for qPCR (kinases made in HEK-293); purchased DiscoverX; host or cells: E. coli BL21-derived host (T7 phage) or HEK-293
Protocol: as §1

ZAP70 = target: T30, ZAP70 (Homo sapiens, UniProt P43403)
T30 construct: T7 phage fusion (most kinases) or DNA tag after HEK-293 expression; purchased DiscoverX (Fremont, CA), ScanEDGE; host or cells: T7 phage in E. coli BL21-derived host, or HEK-293
Protocol: as §1

PDGFRA = target: T31, PDGFRA (Homo sapiens, UniProt P16234)
T31 construct: T7 phage fusion (most kinases) or DNA tag for qPCR (kinases made in HEK-293); purchased DiscoverX; host or cells: E. coli BL21-derived host (T7 phage) or HEK-293
Protocol: as §1

RSK2 = target: T32, RSK2 (Homo sapiens, UniProt P51812)
T32 construct: T7 phage fusion (most kinases) or DNA tag after HEK-293 expression; purchased DiscoverX (Fremont, CA), ScanEDGE; host or cells: T7 phage in E. coli BL21-derived host, or HEK-293
Protocol: as §1

ERK1 = target: T33, ERK1 (Homo sapiens, UniProt P27361)
T33 construct: T7 phage fusion (most kinases) or DNA tag for qPCR (HEK-293-made kinases); purchased DiscoverX; host or cells: E. coli BL21-derived host (T7 phage) or HEK-293
Protocol: as §1

COc1ccc(N2C(=O)N(c3c(C)cccc3C)Cc3cnc(Nc4ccc(C5CCN(C)CC5)c(OC)c4)nc32)c(OC)c1 [YKL-05-093]
remaining binding at 0.071 µM (PIK3CA): 84%
remaining binding at 0.071 µM (AMPK-alpha1): 94%
remaining binding at 0.071 µM (RIPK2): 16%
remaining binding at 0.071 µM (FAK): 90%
remaining binding at 0.071 µM (IGF1R): 100%
remaining binding at 0.071 µM (RAF1): 100%
remaining binding at 0.071 µM (BTK): 0.45%
remaining binding at 0.071 µM (HIPK2): 100%
remaining binding at 0.071 µM (MLK1): 12%
remaining binding at 0.071 µM (EPHA2): 7.1%
remaining binding at 0.071 µM (CSNK1D): 98%
remaining binding at 0.071 µM (CSNK1G2): 100%
remaining binding at 0.071 µM (IKK-alpha): 93%
remaining binding at 0.071 µM (KIT): 1.8%
remaining binding at 0.071 µM (CHEK1): 42%
remaining binding at 0.071 µM (TYK2): 49%
remaining binding at 0.071 µM (PIM2): 97%
remaining binding at 0.071 µM (FGFR3): 24%
remaining binding at 0.071 µM (PIK3C2B): 100%
remaining binding at 0.071 µM (PIM3): 84%
remaining binding at 0.071 µM (TGFBR1): 90%
remaining binding at 0.071 µM (BRAF): 66%
remaining binding at 0.071 µM (PKAC-alpha): 100%
remaining binding at 0.071 µM (HCK): 1.2%
remaining binding at 0.071 µM (MET): 92%
remaining binding at 0.071 µM (MARK3): 40%
remaining binding at 0.071 µM (MELK): 36%
remaining binding at 0.071 µM (CDK3): 80%
remaining binding at 0.071 µM (PIK3CG): 80%
remaining binding at 0.071 µM (ZAP70): 52%
remaining binding at 0.071 µM (PDGFRA): 11%
remaining binding at 0.071 µM (RSK2): 51%
remaining binding at 0.071 µM (ERK1): 100%

— US12121521B2, “Uses of salt-inducible kinase (SIK) inhibitors for treating osteoporosis” (The General Hospital Corporation, priority 2016, dated 2024)
